Measured values as given in US20090209536A1, “AMINOQUINAZOLINE CANNABINOID RECEPTOR MODULATORS FOR TREATMENT OF DISEASE” (KALYPSYS, INC., priority 2007, published 2009).
Where two headings read alike, the source gives them in different places.

What was measured:
[1] = target: T1, human cannabinoid receptor type 2 (Homo sapiens, UniProt P34972); test: Human CB2 Radioligand Binding Assay; settings: membranes from stably transfected CHO CB2 cells
T1 construct: expressed in transfected cells; membrane preparation
How it was run: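 Filtration competition binding on membranes from CHO cells stably expressing human CB2, with [3H]CP-55,940 at its lot-specific Kd, in 50 mM Tris-HCl pH 7.4, EGTA, MgCl2, 5 mg/ml BSA, 1% DMSO; 90 min at 30° C. Compounds at 10 uM single point or dose-response; bound radioactivity by scintillation, 100 nM CP-55,940 as 100% efficacy.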

[2] = target: T2, human cannabinoid receptor type 1 (Homo sapiens, UniProt P21554); test: Human CB1 Radioligand Binding Assay (basis of selectivity, CB2 vs. CB1); settings: CB1: HEK 293 EBNA cells expressing human CB1; CB2: CHO CB2 membranes
T2 construct: purchased Perkin Elmer RBHCB1M; host or cells: HEK 293 EBNA cells
Method: 2. Human CB1 Radioligand Binding Assay
The incubation buffer was composed of 50 mM Tris-HCl pH 7.4, 2.5 mM EDTA, 5 mM MgCl2, 5.0 mg/ml fatty acid free BSA and the wash buffer was composed of 50 mM Tris-HCl pH 7.4, 2.5 mM EDTA, 5 mM MgCl2, 0.5 mg/ml fatty acid free BSA.

[3] = competition with [3H] CP-55,940, read-out: CB2 Ligand Binding Asssay EC50

T2 sequence (P21554 whole entry): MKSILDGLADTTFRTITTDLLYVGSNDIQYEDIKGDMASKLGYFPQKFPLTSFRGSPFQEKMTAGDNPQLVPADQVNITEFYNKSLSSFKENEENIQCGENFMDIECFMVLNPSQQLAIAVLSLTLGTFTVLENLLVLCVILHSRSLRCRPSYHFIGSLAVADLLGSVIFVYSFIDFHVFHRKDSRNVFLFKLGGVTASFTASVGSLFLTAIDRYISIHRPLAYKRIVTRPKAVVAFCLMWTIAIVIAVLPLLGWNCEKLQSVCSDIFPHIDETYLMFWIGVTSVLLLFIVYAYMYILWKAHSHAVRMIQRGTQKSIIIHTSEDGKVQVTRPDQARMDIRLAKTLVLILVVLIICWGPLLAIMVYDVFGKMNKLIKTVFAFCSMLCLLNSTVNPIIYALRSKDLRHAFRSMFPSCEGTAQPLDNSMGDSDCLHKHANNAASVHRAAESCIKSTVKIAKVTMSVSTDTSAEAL
T1 sequence (P34972 whole entry): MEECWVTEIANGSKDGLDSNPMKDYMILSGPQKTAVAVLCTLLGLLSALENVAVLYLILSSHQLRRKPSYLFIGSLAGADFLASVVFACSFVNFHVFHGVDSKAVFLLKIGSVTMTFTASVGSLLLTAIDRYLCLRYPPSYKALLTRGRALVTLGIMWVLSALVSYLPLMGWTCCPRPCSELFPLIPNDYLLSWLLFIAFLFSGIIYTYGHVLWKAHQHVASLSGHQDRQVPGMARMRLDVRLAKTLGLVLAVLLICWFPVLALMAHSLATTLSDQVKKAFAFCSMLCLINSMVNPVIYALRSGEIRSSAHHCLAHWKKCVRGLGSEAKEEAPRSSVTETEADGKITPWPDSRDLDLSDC

Structure (SMILES)	EC50 [1, 3]	Selectivity, CB2 vs. CB1 [2]	EC50 ([1]; CB2 Ligand Binding Asssay EC50, competition with [3H] CP-55,940)
CCOC(=O)N1CCN(c2nc(-c3ccc(F)c(F)c3)nc3ccccc23)CC1 [Example 220, Ethyl 4-(2-(3,4-difluorophenyl)quinazolin-4-yl)piperazine-1-carboxylate]	> 1000 nM	− (− indicates ≦ 10−fold)	
CCOC(=O)N1CCN(c2nc(C3CCCCC3)nc3ccc(Cl)cc23)CC1 [Example 221, Ethyl 4-(6-chloro-2-cyclohexylquinazolin-4-yl)piperazine-1-carboxylate]	< 1000 nM	+ (+ indicates > 10−fold)	
FC(F)(F)Oc1ccc2nc(-c3ccc(Cl)cc3)nc(N3CCCC3)c2c1 [Example 222, 2-(4-Chlorophenyl)-4-(pyrrolidin-1-yl)-6-(trifluoromethoxy)quinazoline]	< 1000 nM	− (− indicates ≦ 10−fold)	
CCOC(=O)N1CCN(c2nc(-c3ccc(Cl)cc3)nc3ccc(OC(F)(F)F)cc23)CC1 [Example 223, Ethyl 4-(2-(4-chlorophenyl)-6-(trifluoromethoxy)quinazolin-4-yl)piperazine-1-carboxylate]	> 1000 nM	− (− indicates ≦ 10−fold)	
FC(F)(F)Oc1ccc2nc(-c3ccc(Cl)cc3)nc(N3CCSCC3)c2c1 [Example 224, 4-(2-(4-Chlorophenyl)-6-(trifluoromethoxy)quinazolin-4-yl)thiomorpholine]	> 1000 nM	− (− indicates ≦ 10−fold)	
CN1CCN(c2nc(-c3ccc(Cl)cc3)nc3ccc(OC(F)(F)F)cc23)CC1 [Example 225, 2-(4-Chlorophenyl)-4-(4-methylpiperazin-1-yl)-6-(trifluoromethoxy)quinazoline]	< 1000 nM	+ (+ indicates > 10−fold)	
COC(=O)N1CCN(c2nc(-c3ccccc3Cl)nc3ccccc23)CC1 [Example 226, Methyl 4-(2-(2-chlorophenyl)quinazolin-4-yl)piperazine-1-carboxylate]	< 1000 nM	+ (+ indicates > 10−fold)	
Clc1ccccc1-c1nc(N2CCCC2)c2cccc(Cl)c2n1 [Example 227, 8-Chloro-2-(2-chlorophenyl)-4-(pyrrolidin-1-yl)quinazoline]	< 1000 nM	− (− indicates ≦ 10−fold)	
CN1CCN(c2nc(-c3ccccc3Cl)nc3c(Cl)cccc23)CC1 [Example 228, 8-Chloro-2-(2-chlorophenyl)-4-(4-methylpiperazin-1-yl)quinazoline]	> 1000 nM	− (− indicates ≦ 10−fold)	
COC(CN(C)c1nc(-c2ccccc2Cl)nc2ccccc12)OC [Example 229, 2-(2-Chlorophenyl)-N-(2,2-dimethoxyethyl)-N-methylquinazolin-4-amine]	> 1000 nM	− (− indicates ≦ 10−fold)	
CCCOC(=O)N1CCN(c2nc(-c3ccccc3Cl)nc3cccc(Cl)c23)CC1 [Example 231, Propyl 4-(5-chloro-2-(2-chlorophenyl)quinazolin-4-yl)piperazine-1-carboxylate]	> 1000 nM	− (− indicates ≦ 10−fold)	
CCCC(=O)N1CCN(c2nc(-c3ccccc3Cl)nc3cccc(Cl)c23)CC1 [Example 232, 1-(4-(5-Chloro-2-(2-chlorophenyl)quinazolin-4-yl)piperazin-1-yl)butan-1-one]	< 1000 nM	+ (+ indicates > 10−fold)	
CC(=O)N1CCN(c2nc(-c3ccccc3Cl)nc3cc(Cl)ccc23)CC1 [Example 233, 1-(4-(7-Chloro-2-(2-chlorophenyl)quinazolin-4-yl)piperazin-1-yl)ethanone]	< 1000 nM	− (− indicates ≦ 10−fold)	
CCOC(=O)N1CCN(c2nc(-c3ccccc3Cl)nc3cc(Cl)ccc23)CC1 [Example 234, Ethyl 4-(7-chloro-2-(2-chlorophenyl)quinazolin-4-yl)piperazine-1-carboxylate]	> 1000 nM	− (− indicates ≦ 10−fold)	
Clc1ccc2c(N3CCCC3)nc(-c3ccccc3Cl)nc2c1 [Example 235, 7-Chloro-2-(2-chlorophenyl)-4-(pyrrolidin-1-yl)quinazoline]		− (− indicates ≦ 10−fold)	> 1000 nM
Clc1ccccc1-c1nc(N2CCNCC2)c2c(Cl)cccc2n1 [Example 236, 5-Chloro-2-(2-chlorophenyl)-4-(piperazin-1-yl)quinazoline]	> 1000 nM	− (− indicates ≦ 10−fold)	
CC(=O)N1CCN(c2nc(-c3ccccc3F)nc3cccc(Cl)c23)CC1 [Example 237, 1-(4-(5-Chloro-2-(2-fluorophenyl)quinazolin-4-yl)piperazin-1-yl)ethanone]	< 1000 nM	+ (+ indicates > 10−fold)	

Structure (SMILES)	EC50 [1, 3]	Selectivity, CB2 vs. CB1 [2]	EC50 ([1]; CB2 Ligand Binding Asssay EC50, competition with [3H] CP-55,940)
CCOC(=O)N1CCN(c2nc(-c3ccccc3F)nc3cccc(Cl)c23)CC1 [Example 238, Ethyl 4-(5-chloro-2-(2-fluorophenyl)quinazolin-4-yl)piperazine-1-carboxylate]	< 1000 nM	+ (+ indicates > 10−fold)	
Fc1ccccc1-c1nc(N2CCCC2)c2c(Cl)cccc2n1 [Example 239, 5-Chloro-2-(2-fluorophenyl)-4-(pyrrolidin-1-yl)quinazoline]	< 1000 nM	+ (+ indicates > 10−fold)	
CC(=O)N1CCN(c2nc(-c3ccccc3Cl)nc3cccc(C(F)(F)F)c23)CC1 [Example 240, 1-(4-(2-(2-Chlorophenyl)-5-(trifluoromethyl)quinazolin-4-yl)piperazin-1-yl)ethanone]	< 1000 nM	+ (+ indicates > 10−fold)	
CCOC(=O)N1CCN(c2nc(-c3ccccc3Cl)nc3cccc(C(F)(F)F)c23)CC1 [Example 241, Ethyl 4-(2-(2-chlorophenyl)-5-(trifluoromethyl)quinazolin-4-yl)piperazine-1-carboxylate]	< 1000 nM	+ (+ indicates > 10−fold)	
FC(F)(F)c1cccc2nc(-c3ccccc3Cl)nc(N3CCCC3)c12 [Example 242, 2-(2-Chlorophenyl)-4-(pyrrolidin-1-yl)-5-(trifluoromethyl)quinazoline]	< 1000 nM	+ (+ indicates > 10−fold)	
COc1cccc2nc(-c3ccccc3Cl)nc(N3CCN(C(C)=O)CC3)c12 [Example 243, 1-(4-(2-(2-Chlorophenyl)-5-methoxyquinazolin-4-yl)piperazin-1-yl)ethanone]	< 1000 nM	+ (+ indicates > 10−fold)	
CCOC(=O)N1CCN(c2nc(-c3ccccc3Cl)nc3cccc(OC)c23)CC1 [Example 244, Ethyl 4-(2-(2-chlorophenyl)-5-methoxyquinazolin-4-yl)piperazine-1-carboxylate]	< 1000 nM	+ (+ indicates > 10−fold)	
COc1cccc2nc(-c3ccccc3Cl)nc(N3CCCC3)c12 [Example 245, 2-(2-Chlorophenyl)-5-methoxy-4-(pyrrolidin-1-yl)quinazoline]	< 1000 nM	+ (+ indicates > 10−fold)	
CC(=O)N1CCN(c2nc(-c3ccccc3Cl)nc3cccc(F)c23)CC1 [Example 246, 1-(4-(2-(2-Chlorophenyl)-5-fluoroquinazolin-4-yl)piperazin-1-yl)ethanone]	< 1000 nM	+ (+ indicates > 10−fold)	
CCOC(=O)N1CCN(c2nc(-c3ccccc3Cl)nc3cccc(F)c23)CC1 [Example 247, Ethyl 4-(2-(2-chlorophenyl)-5-fluoroquinazolin-4-yl)piperazine-1-carboxylate]	< 1000 nM	+ (+ indicates > 10−fold)	
Fc1cccc2nc(-c3ccccc3Cl)nc(N3CCCC3)c12 [Example 248, 2-(2-Chlorophenyl)-5-fluoro-4-(pyrrolidin-1-yl)quinazoline]	< 1000 nM	+ (+ indicates > 10−fold)	
COc1ccc2nc(-c3ccc(C(C)(C)C)cc3)nc(N3CCN(C(C)=O)CC3)c2c1 [Example 249, 1-(4-(2-(4-tert-Butylphenyl)-6-methoxyquinazolin-4-yl)piperazin-1-yl)ethanone]	< 1000 nM	+ (+ indicates > 10−fold)	
CCOC(=O)N1CCN(c2nc(-c3ccc(C(C)(C)C)cc3)nc3ccc(OC)cc23)CC1 [Example 250, Ethyl 4-(2-(4-tert-butylphenyl)-6-methoxyquinazolin-4-yl)piperazine-1-carboxylate]	< 1000 nM	+ (+ indicates > 10−fold)	
COc1ccc2nc(-c3ccc(C(C)(C)C)cc3)nc(N3CCCC3)c2c1 [Example 251, 2-(4-tert-Butylphenyl)-6-methoxy-4-(pyrrolidin-1-yl)quinazoline]	< 1000 nM	+ (+ indicates > 10−fold)	
CCOC(=O)N1CCN(c2nc(-c3ccc(C(C)(C)C)cc3)nc3ccc(Cl)cc23)CC1 [Example 252, Ethyl 4-(2-(4-tert-butylphenyl)-6-chloroquinazolin-4-yl)piperazine-1-carboxylate]	> 1000 nM	− (− indicates ≦ 10−fold)	
CC(=O)N1CCN(c2nc(-c3ccc(Cl)cc3)nc3ccc(Cl)cc23)CC1 [Example 253, 1-(4-(6-Chloro-2-(4-chlorophenyl)quinazolin-4-yl)piperazin-1-yl)ethanone]	> 1000 nM	− (− indicates ≦ 10−fold)	
